The values that follow come from patent US20110077237A1, “KINASE INHIBITORS” (VERTEX PHARMACEUTICALS INCORPORATED, priority 2007, published 2011).

The target of the first assay is PKC delta kinase (Homo sapiens, UniProt Q05655). Nature of the assay: PKC Delta coupled-enzyme kinase assay. The format is biochemical.
Chain of PKC delta kinase (Q05655 whole entry): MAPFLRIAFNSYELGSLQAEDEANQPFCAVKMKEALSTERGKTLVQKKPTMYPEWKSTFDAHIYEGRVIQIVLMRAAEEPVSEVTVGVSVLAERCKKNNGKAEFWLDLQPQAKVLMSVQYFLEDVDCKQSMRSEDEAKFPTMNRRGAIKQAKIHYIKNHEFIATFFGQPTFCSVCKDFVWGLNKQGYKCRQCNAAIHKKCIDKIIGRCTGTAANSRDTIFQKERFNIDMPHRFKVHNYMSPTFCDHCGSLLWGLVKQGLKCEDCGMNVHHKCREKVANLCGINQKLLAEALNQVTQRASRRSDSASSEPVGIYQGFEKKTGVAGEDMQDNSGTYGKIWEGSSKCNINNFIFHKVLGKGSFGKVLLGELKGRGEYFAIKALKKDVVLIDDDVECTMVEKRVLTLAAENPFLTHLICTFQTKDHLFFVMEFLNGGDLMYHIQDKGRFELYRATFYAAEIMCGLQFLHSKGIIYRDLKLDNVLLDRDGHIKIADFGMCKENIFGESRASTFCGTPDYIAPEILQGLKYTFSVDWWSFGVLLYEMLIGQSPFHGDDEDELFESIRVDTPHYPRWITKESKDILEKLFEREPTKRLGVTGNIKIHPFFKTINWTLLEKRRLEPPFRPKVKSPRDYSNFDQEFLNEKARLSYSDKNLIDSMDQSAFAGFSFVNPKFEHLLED
Details: not given
The method, then:
An assay buffer solution was prepared which consisted of 100 mM HEPES (pH 7.5), 10 mM MgCl2, 25 mM NaCl, 0.1 mM EDTA and 0.01% Brij. […] To 16 μL of this enzyme buffer, in a 384 well plate, was added 1 μL of VRT stock solution in DMSO. The mixture was allowed to equilibrate for 10 mins at 30° C. […] Ki values were calculated from initial rate data by non-linear regression using the Prism software package (Prism 4.0a, Graphpad Software, San Diego, Calif.).
In the case of `Nc1ncccc1C(=O)c1cccc(N2CCC(N)CC2)n1` [compound 86], the Ki lay in the range of 50 to 500 nM. Same read-out and setting: next, `CC(C)(C)[C@H]1CN(c2cccc(C(=O)c3cccnc3N)n2)CCN1` [compound 225]: 50 to 500 nM; `CC1(C)CN(c2cccc(C(=O)c3cccnc3N)n2)CCN1` [compound 226]: 50 to 500 nM; `CC(C)[C@@H]1CN(c2cccc(C(=O)c3cccnc3N)n2)CCN1` [compound 231]: 500 to 2800 nM.

The same assay, now with this note: 46 nM PKC delta, 150 μM ATP, 30° C.; read-out: Ki PKC delta.
As for `Nc1ncccc1C(=O)c1cccc(N2CCN3CCCC3C2)n1` (single isomer, unassigned) [compound 211], the Ki lay in the range of 50 to 500 nM. As for `Nc1ncccc1C(=O)c1cccc(N2CCCN(C(=O)CCC(F)(F)F)CC2)n1` [compound 31], the Ki lay in the range of 500 to 2800 nM.

With `Nc1ncccc1C(=O)c1cccc(N2CCCN(C(=O)Cc3ccccc3)CC2)n1` [compound 33], the Ki fell in the range of 50 to 500 nM. On to `CC(C)C(=O)N1CCCN(c2cccc(C(=O)c3cccnc3N)n2)CC1` [compound 34], for which the Ki is 500 to 2800 nM. Regarding `Nc1ncccc1C(=O)c1cccc(N2CCCN(C(=O)CC3CC3)CC2)n1` [compound 35], the Ki is > 2800 nM. The same measure, in the same setting: next, `CC(C)(C)C(=O)N1CCCN(c2cccc(C(=O)c3cccnc3N)n2)CC1` [compound 37]: 500 to 2800 nM. Still for that read-out and setting: for `CC(C)(C)CCN1CCCN(c2cccc(C(=O)c3cccnc3N)n2)CC1` [compound 44] the value was > 2800 nM; for `Cc1ccccc1-c1cnc(N)c(C(=O)c2cccc(N3CCCNCC3)n2)c1` [compound 57], 500 to 2800 nM. For `Nc1ncc(-c2cccnc2)cc1C(=O)c1cccc(N2CCCNCC2)n1` [compound 58], the Ki is 50 to 500 nM. As for `Cc1ccc(-c2cnc(N)c(C(=O)c3cccc(N4CCCNCC4)n3)c2)cc1` [compound 59], the Ki is 50 to 500 nM.

Regarding `Nc1ncc(Br)cc1C(=O)c1ncc(C(=O)NCc2ccccc2)s1` [compound 62], the Ki was in the range of 50 to 500 nM. The same measure, in the same setting: next, `Nc1ncc(Br)cc1C(=O)c1cccc(N2CCCN(CCO)CC2)n1` [compound 98]: 50 to 500 nM. The same measure, in the same setting: for `CC(C)N1CCN(c2cccc(C(=O)c3cc(Br)cnc3N)n2)CC1` [compound 100] the value was 50 to 500 nM. With `Nc1ncccc1C(=O)c1nc(N2CCCNCC2)cs1` [compound 102], the Ki fell in the range of 50 to 500 nM. On the same count and under the same terms, next, `Nc1ncc(Br)cc1C(=O)c1cncc(N2CCCNCC2)n1` [compound 149]: 50 to 500 nM; `Nc1ncc(Br)cc1C(=O)c1cccc(N2CCCN(C(=O)c3ccccc3C(F)(F)F)CC2)n1` [compound 150]: 50 to 500 nM. Still for that read-out and setting: for `Nc1ncc(Br)cc1C(=O)c1cccc(N2CCCN(C(=O)c3ccccc3Cl)CC2)n1` [compound 151] the value was 500 to 2800 nM; for `C=Cc1cnc(N)c(C(=O)c2cccc(N3CCCN(C)CC3)n2)c1` [compound 152], 50 to 500 nM; for `CCc1cnc(N)c(C(=O)c2cccc(N3CCCN(C)CC3)n2)c1` [compound 153], 500 to 2800 nM. For the molecule `Nc1ncc(C2CC2)cc1C(=O)c1cccc(N2CCCNCC2)n1` [compound 154], the Ki was in the range of 50 to 500 nM.

Consider `Cc1cnc(N)c(C(=O)c2cccc(N3CCCNCC3)n2)c1` [compound 155, (6-(1,4-diazepan-1-yl)pyridin-2-yl)(2-amino-5-methylpyridin-3-yl)methanone bis(2,2,2-trifluoroacetate)], for which the Ki lay within 500 to 2800 nM.

For the molecule `CN1CCCN(c2cncc(C(=O)c3cc(Br)cnc3N)n2)CC1` [compound 156], the Ki lay within 50 to 500 nM. As for `CN1CCCN(c2csc(C(=O)c3cc(Br)cnc3N)n2)CC1` [compound 163], the Ki was 50 to 500 nM. Turning to `C=Cc1cnc(N)c(C(=O)c2cncc(N3CCCNCC3)n2)c1` [compound 165], the Ki is 50 to 500 nM. On the same count and under the same terms, for `Nc1ncc(/C=C/c2ccccc2)cc1C(=O)c1cccc(N2CCCNCC2)n1` [compound 167] the value was 50 to 500 nM; for `Nc1cccc(-c2cnc(N)c(C(=O)c3cccc(N4CCCNCC4)n3)c2)c1` [compound 169], 50 to 500 nM; for `Nc1ccc(-c2cnc(N)c(C(=O)c3cccc(N4CCCNCC4)n3)c2)cc1` [compound 170], 50 to 500 nM. The same measure, in the same setting: for `Nc1ncc(-c2ccc(O)cc2)cc1C(=O)c1cccc(N2CCCNCC2)n1` [compound 171] the value was 50 to 500 nM; for `Nc1ncc(-c2cccc(O)c2)cc1C(=O)c1cccc(N2CCCNCC2)n1` [compound 172], 50 to 500 nM; for `COc1cccc(-c2cnc(N)c(C(=O)c3cccc(N4CCCNCC4)n3)c2)c1` [compound 181], 50 to 500 nM. Still for that read-out and setting: next, `Cc1cccc(-c2cnc(N)c(C(=O)c3cccc(N4CCCNCC4)n3)c2)c1` [compound 182]: 50 to 500 nM; `Nc1ncc(-c2ccc[nH]2)cc1C(=O)c1cccc(N2CCCNCC2)n1` [compound 183]: 50 to 500 nM.

Turning to `COc1ccc(-c2cnc(N)c(C(=O)c3cccc(N4CCCNCC4)n3)c2)cc1` [compound 186], the Ki is 50 to 500 nM. Take `Nc1ncc(Br)cc1C(=O)c1cccc(N2CCNCC2)n1` [compound 195]: the Ki lay within 50 to 500 nM. Take `Nc1ncc(-c2cc[nH]c2)cc1C(=O)c1cccc(N2CCCNCC2)n1` [compound 199]: the Ki is 50 to 500 nM. Same read-out and setting: next, `Nc1ncc(-c2csc3ccccc23)cc1C(=O)c1cccc(N2CCCNCC2)n1` [compound 200]: 50 to 500 nM; `Nc1ncc(-c2ccsc2)cc1C(=O)c1cccc(N2CCCNCC2)n1` [compound 201]: 50 to 500 nM; `Nc1ncc(-c2ccccc2)cc1C(=O)c1cccc(N2CCNCC2)n1` [compound 206]: 50 to 500 nM. Turning to `C[C@H]1CN(c2cccc(C(=O)c3cccnc3N)n2)[C@@H](C)CN1` [compound 218], the Ki lay within 50 to 500 nM. Same read-out and setting: next, `CC(C)C[C@H]1CN(c2cccc(C(=O)c3cccnc3N)n2)CCN1C(=O)CC(F)(F)F` [compound 219]: > 2800 nM; `CC1CN(c2cccc(C(=O)c3cccnc3N)n2)C(C)CN1` (centres unmarked) [compound 222]: 50 to 500 nM. Take `C[C@H]1CNCCN1c1cccc(C(=O)c2cccnc2N)n1` [compound 228]: the Ki lay in the range of 50 to 500 nM. Regarding `CC(C)C[C@H]1CN(c2cccc(C(=O)c3cc(Br)cnc3N)n2)CCN1` [compound 232], the Ki lay within 50 to 500 nM.

For the molecule `C=Cc1cnc(N)c(C(=O)c2cccc(N3CCN[C@@H](CC(C)C)C3)n2)c1` [compound 233], the Ki lay within 50 to 500 nM. As for `CC(C)[C@@H]1CNCCN1c1cccc(C(=O)c2cccnc2N)n1` [compound 237], the Ki was in the range of 50 to 500 nM. Still for that read-out and setting: next, `CC(C)C[C@H]1CN(c2cccc(C(=O)c3cc(-c4ccccc4)cnc3N)n2)CCN1` [compound 239]: 500 to 2800 nM; `Cc1cc(C)c(CC2CN(c3cccc(C(=O)c4cccnc4N)n3)CCN2)c(C)c1` (centres unmarked) [compound 244]: > 2800 nM.

Consider `Nc1ncc(Cl)cc1C(=O)c1cccc(N2CCCNCC2)n1` [compound 245], for which the Ki fell in the range of 50 to 500 nM.

For the molecule `Cc1sc(N2CCNC[C@H]2C)nc1C(=O)c1cccnc1N` [compound 247], the Ki lay in the range of 500 to 2800 nM. The same measure, in the same setting: next, `Nc1ncccc1C(=O)c1cccc(N2CCNC(c3cccnc3)C2)n1` (centres unmarked) [compound 249]: 50 to 500 nM. Still for that read-out and setting: next, `Cc1ccc(N2CCNC(c3ccccc3)C2)nc1C(=O)c1cccnc1N` (centres unmarked) [compound 252]: 50 to 500 nM. On the same count and under the same terms, next, `Cc1sc(N2CCNC(c3ccccc3)C2)nc1C(=O)c1cccnc1N` (centres unmarked) [compound 256]: 500 to 2800 nM.
